Experimental findings from patent US20260078099A1, “COMPOUND, PREPARATION METHOD THEREOF, AND LIPID NANOPARTICLE AND PHARMACEUTICAL COMPOSITION” (priority 2023, published 2026) are described below.

Series [1] is described as follows: LNP size and PDI by dynamic light scattering. Type of series: physicochemical. Particulars: for PDI / Size (nm): mRNA LNP, cationic lipid/DSPC/cholesterol/PEG-lipid 50:10:38.5:1.5.
Series [2] can be described thus: LNP encapsulation efficiency (Quant-it Ribogreen). Type of series: physicochemical. The conditions noted are these: mRNA LNP, cationic lipid/DSPC/cholesterol/PEG-lipid 50:10:38.5:1.5.
Series [3] in a line: Dose-response study, Luc mRNA intramuscular. In kind it is in vivo. The conditions noted are these: mRNA doses 0.25, 0.05 and 0.01 mg/kg. Here is the method:
Samples containing firefly luciferase (Luc) mRNA were administered intramuscularly to evaluate protein expression. […] As the dose decreased, the injection site's expression proportion increased. A26, A47, and B38 maintained injection site flux levels of 0.3-3×10^10 (p/s) across all doses.

A further series is described as follows: LNP zeta potential. Particulars: mRNA LNP. In kind it is physicochemical.
The next series concerns mice. Description: Bioluminescent study, intramuscular injection of F-luc mRNA LNPs. In kind it is in vivo. The conditions noted are these: F-luc luminescence flux normalized to MC3; 0.25 mg/kg intramuscular, mice n=3, 6-hour time point. The method, boiled down: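 Mice (n=3) received LNP-formulated F-luc mRNA at 0.25 mg/kg intramuscularly. Bioluminescence was read 6 h after dosing. Test LNPs were made with an MC3 formulation, and PBS served as control in some groups.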

With `CCCCCCCCNC(=O)C(CCCCCCCC)N(CCCN(C)C)C(=O)CCCCCCC(=O)OC(CCCCCCCC)CCCCCCCC` (stereo not drawn) [Compound A26], in series [1], the PDI came out at 0.11 and the “Size (nm)” value is on record as 94.21 nm. Also, in series [1] (mRNA-loaded LNPs), the “particle sizes by dynamic light scattering (FIG. 22)” value is “approximately 100 nm”. For the same molecule, in series [2], the “Encapsulation efficiency (%)” value came out at 94.09%. For the same molecule, in series [3], the “dose-response of Luc expression” value is reported as “clear dose-response gradient”. Besides, the “Zeta potential (mV)” value in the series “LNP zeta potential” is recorded as 2.30 mV. In addition, in the series with mice, the “Relative Total flux” value was “A (A: ≥2)”.

For `CCCCCCCCNC(=O)C(CCCCCCCC)N(CCCCN(C)C)C(=O)CCCCCCC(=O)OC(CCCCCCCC)CCCCCCCC` (stereo not drawn) [Compound A35], in series [1], the PDI is 0.19 and the “Size (nm)” value is given as 74.92 nm. In addition, the “Encapsulation efficiency (%)” value in series [2] is reported as 97.34%. Further, in the series “LNP zeta potential”, the “Zeta potential (mV)” value is −7.81 mV. In addition, in the series with mice, the “Relative Total flux” value is reported as “A (A: ≥2)”.

In the case of `CCCCCCCCC(C(=O)NCCCCCCCCCC(=O)OC(CCCC)CCCCCC)N(CCCN(C)C)C(=O)CCCCCCCCCC(=O)OC(CCCC)CCCCCC` (stereo not drawn) [Compound A13], in series [1], the PDI is 0.157 and the “Size (nm)” value came to 118.5 nm. The “Encapsulation efficiency (%)” value in series [2] was 94.62%. Besides, the “Zeta potential (mV)” value in the series “LNP zeta potential” amounted to 2.90 mV. Also, the “Relative Total flux” value in the series on mice is “B (B: ≥1 and <2)”.

Regarding `CCCCCCCCCCCNC(=O)C(CCCCCCCC)N(CCN(C)CCN(C(=O)CCCCCCCCCC(=O)OC(CCCCCC)CCCCCC)C(CCCCCCCC)C(=O)NCCCCCCCCCC)C(=O)CCCCCCCCCC(=O)OC(CCCCCC)CCCCCC` (stereo not drawn) [Compound D4], in series [1], the PDI amounted to 0.163 and the “Size (nm)” value turned out to be 113.2 nm. In addition, in series [2], the “Encapsulation efficiency (%)” value is 43.24%. In addition, the “Zeta potential (mV)” value in “LNP zeta potential” is −5.91 mV. Besides, the “Relative Total flux” value in the series with mice was “C (C: ≥0.1 and <1)”.

`CCCCCCCC/C=C\CCCCCCCCNC(=O)C(CCCCCCCC)N(CCCCCCCC/C=C\CCCCCCCC)C(=O)CCCN(C)C` (stereo not drawn) [Compound C1]: in series [1], the PDI came out at 0.108 and the “Size (nm)” value is on record as 60.62 nm. Also, in series [2], the “Encapsulation efficiency (%)” value is on record as 82.31%. The “Zeta potential (mV)” value in “LNP zeta potential” is recorded as −9.90 mV. Moreover, the “Relative Total flux” value in the series with mice is “B (B: ≥1 and <2)”.

`CCCCCCC(CCCCCC)OC(=O)CCCCCCCCCNC(=O)C(CCCCCCCCCC(=O)OC(CCCCCC)CCCCCC)N(CCN1CCN(CCO)CC1)C(=O)CCN1CCN(CCO)CC1` (stereo not drawn) [Compound E10]: in series [1], the PDI is 0.185 and the “Size (nm)” value is on record as 104.5 nm. Moreover, the “Encapsulation efficiency (%)” value in series [2] worked out at 69.71%. In addition, in the series “LNP zeta potential”, the “Zeta potential (mV)” value is −16.71 mV. Further, in the series with mice, the “Relative Total flux” value was “C (C: ≥0.1 and <1)”.

For `CCCCCCCC(C(=O)NCCCCCCCCCC(=O)OC(CCCCCC)CCCCCC)N(CCn1ccnc1)C(=O)CCCCCCCCCC(=O)OC(CCCCCC)CCCCCC` (stereo not drawn) [Compound B18], in series [1], the PDI was 0.187 and the “Size (nm)” value is 80.68 nm. Besides, the “Encapsulation efficiency (%)” value in series [2] was 81.99%. Besides, in “LNP zeta potential”, the “Zeta potential (mV)” value was determined as 4.79 mV. Also, in the series with mice, the “Relative Total flux” value was “A (A: ≥2)”.

Consider `CCCCCCCC(C(=O)NCCCCCCCCCC(=O)OC(CCCCCC)CCCCCC)N(CCN1CCN(CCO)CC1)C(=O)CCCCCCCCCC(=O)OC(CCCCCC)CCCCCC` (stereo not drawn) [Compound B16], for which, in series [1], the PDI is reported as 0.593 and the “Size (nm)” value turned out to be 57.19 nm. Besides, in series [2], the “Encapsulation efficiency (%)” value was 94.62%. Further, in the series “LNP zeta potential”, the “Zeta potential (mV)” value amounted to 5.42 mV. For the same molecule, the “Relative Total flux” value in the series with mice is reported as “A (A: ≥2)”.

Regarding `CCCCCCCC(C(=O)NCCCCCCCCCC(=O)OC(CCCCCC)CCCCCC)N(CCCN1CCN(CCO)CC1)C(=O)CCCCCCCCCC(=O)OC(CCCCCC)CCCCCC` (stereo not drawn) [Compound B17], in series [1], the PDI stood at 0.185 and the “Size (nm)” value is given as 64.2 nm. The “Encapsulation efficiency (%)” value in series [2] is given as 92.99%. Also, the “Zeta potential (mV)” value in “LNP zeta potential” is listed as 14.20 mV. For the same molecule, the “Relative Total flux” value in the series on mice is reported as “A (A: ≥2)”.

For `CCCCCCCCC(C(=O)NCCCCCCCCCC(=O)OC(CCCCCC)CCCCCC)N(CCCN1CCCC1)C(=O)CCCCCCCCCC(=O)OC(CCCCCC)CCCCCC` (stereo not drawn) [Compound A1], in series [1], the PDI is 0.135 and the “Size (nm)” value is recorded as 82.96 nm. For the same molecule, the “Encapsulation efficiency (%)” value in series [2] came to 67.41%. Also, in the series “LNP zeta potential”, the “Zeta potential (mV)” value was −12.25 mV. Also, the “Relative Total flux” value in the series with mice was “B (B: ≥1 and <2)”.

For the molecule `CCCCCCCCNC(=O)C(CCCCCC)N(CCCN(C)C)C(=O)CCCCCCC(=O)OC(CCCCCCCC)CCCCCCCC` (stereo not drawn) [Compound A29], in series [1], the PDI stood at 0.09 and the “Size (nm)” value was 94.71 nm. Also, in series [2], the “Encapsulation efficiency (%)” value amounted to 94.69%. Besides, in the series “LNP zeta potential”, the “Zeta potential (mV)” value was −1.24 mV. Besides, the “Relative Total flux” value in the series on mice is reported as “A (A: ≥2)”.

`CCCCCCCC(C(=O)NCCCCCCCCCC(=O)OC(CCCCCC)CCCCCC)N(COC(=O)CCN(C)C)C(=O)CCCCCCCCCC(=O)OC(CCCCCC)CCCCCC` (stereo not drawn) [Compound B23]: in series [1], the PDI is listed as 0.214 and the “Size (nm)” value is given as 68.16 nm. Also, the “Encapsulation efficiency (%)” value in series [2] was 93.95%. The “Zeta potential (mV)” value in “LNP zeta potential” is 12.50 mV. Besides, the “Relative Total flux” value in the series with mice was “B (B: ≥1 and <2)”.

Regarding `CCCCCCCC(C(=O)NCCCCCCCCCC(=O)OC(CCCCCC)CCCCCC)N(CCCN(C)CCO)C(=O)CCCCCCCCCC(=O)OC(CCCCCC)CCCCCC` (stereo not drawn) [Compound B8], in series [1], the PDI was 0.152 and the “Size (nm)” value was 60.47 nm. Further, in series [2], the “Encapsulation efficiency (%)” value worked out at 91.38%. Moreover, the “Zeta potential (mV)” value in the series “LNP zeta potential” is listed as −7.30 mV. For the same molecule, the “Relative Total flux” value with mice is reported as “A (A: ≥2)”.

In the case of `CCCCCCCC(C(=O)NCCCCCCCCCC(=O)OC(CCCCCC)CCCCCC)N(CCNCCO)C(=O)CCCCCCCCCC(=O)OC(CCCCCC)CCCCCC` (stereo not drawn) [Compound B6], in series [1], the PDI is on record as 0.183 and the “Size (nm)” value is 61.81 nm. Besides, in series [2], the “Encapsulation efficiency (%)” value is 75.47%. Also, the “Zeta potential (mV)” value in the series “LNP zeta potential” is given as −0.39 mV. Also, the “Relative Total flux” value in the series with mice was “A (A: ≥2)”.

Consider `CCCCCCC(CCCCCC)OC(=O)CCCCCCCCCNC(=O)C(CCCCCCCCCC(=O)OC(CCCCCC)CCCCCC)N(CCCN(C)CCO)C(=O)CCCN(C)CCO` (stereo not drawn) [Compound E5], for which, in series [1], the PDI turned out to be 0.183 and the “Size (nm)” value was found to be 84.36 nm. In addition, the “Encapsulation efficiency (%)” value in series [2] is given as 93.90%. The “Zeta potential (mV)” value in the series “LNP zeta potential” is given as −19.40 mV. The “Relative Total flux” value in the series on mice was “B (B: ≥1 and <2)”.

For `CCCCCCCCNC(=O)C(CCCCCCCC)N(CCCN(C)C)C(=O)CCCCCC(=O)NC(CCCCCCC)CCCCCCC` (stereo not drawn) [Compound A32], in series [1], the PDI is 0.13 and the “Size (nm)” value was 85.33 nm. Moreover, in series [2], the “Encapsulation efficiency (%)” value is recorded as 95.33%. Further, the “Zeta potential (mV)” value in the series “LNP zeta potential” worked out at 1.89 mV. Also, in the series on mice, the “Relative Total flux” value is “B (B: ≥1 and <2)”.

For the molecule `CCCCCCCCC(C(=O)NCCCCCCCCCC(=O)OCC1CC=CCC1)N(CCCN1CCCC1)C(=O)CCCCCCCCCC(=O)OC(CCCCCC)CCCCCC` (stereo not drawn) [Compound A10], in series [1], the PDI came to 0.415 and the “Size (nm)” value came out at 61.16 nm. For the same molecule, in series [2], the “Encapsulation efficiency (%)” value was 54.08%. Besides, the “Zeta potential (mV)” value in the series “LNP zeta potential” was −3.45 mV. The “Relative Total flux” value in the series on mice is on record as “A (A: ≥2)”.

On to `CCCCCCCC(C(=O)NCCCCCCCCCC(=O)OC(CCCCCC)CCCCCC)N(CCCN(C)C)C(=O)CCCCCCCCCC(=O)OCC12CC3CC(CC(C3)C1)C2` (stereo not drawn) [Compound A17], for which, in series [1], the PDI is recorded as 0.07 and the “Size (nm)” value amounted to 60.77 nm. Also, the “Encapsulation efficiency (%)” value in series [2] was 53.24%. Besides, the “Zeta potential (mV)” value in “LNP zeta potential” was −0.68 mV. Also, the “Relative Total flux” value in the series on mice is “D (D: <0.1.)”.

Regarding `CCCCCCC(CCCCCC)OC(=O)CCCCCCCCCNC(=O)C(CCCCCCCCCC(=O)OC(CCCCCC)CCCCCC)N(CCCN(CCO)CCO)C(=O)CCCN(CC)CC` (stereo not drawn) [Compound E4], in series [1], the PDI was 0.205 and the “Size (nm)” value was 95.73 nm. For the same molecule, the “Encapsulation efficiency (%)” value in series [2] is 95.18%. The “Zeta potential (mV)” value in “LNP zeta potential” stood at 5.03 mV. Besides, the “Relative Total flux” value with mice is “A (A: ≥2)”.

Take `CCCCCCCCC(C(=O)NCCCCCCCCCC(=O)OCC12CC3CC(CC(C3)C1)C2)N(CCCN1CCCC1)C(=O)CCCCCCCCCC(=O)OC(CCCCCC)CCCCCC` (stereo not drawn) [Compound A8]: in series [1], the PDI is given as 0.16 and the “Size (nm)” value stood at 66.98 nm. The “Encapsulation efficiency (%)” value in series [2] is given as 92.88%. Also, the “Zeta potential (mV)” value in the series “LNP zeta potential” is listed as −19.03 mV. For the same molecule, the “Relative Total flux” value in the series on mice is “D (D: <0.1.)”.
